What was measured:
Test in all cases: apparent dissociation constant Kd app (Kinobeads competition, EC50 x correction factor)
Settings in all cases: lysate: Jurkat cell lysate
[1] = target: CDC42BPA (UniProt Q5VT25)
[2] = target: AURKB (UniProt Q96GD4)
[3] = target: LATS1 (UniProt O95835)
[4] = target: PRKD3 (UniProt O94806)
[5] = target: PKN1 (UniProt Q16512)
[6] = target: PRKCA (UniProt P17252)
[7] = target: MAP3K11 (UniProt Q16584)
[8] = target: SRC (UniProt P12931)
[9] = target: NEK9 (UniProt Q8TD19)
NEK9, sequence (Q8TD19 whole entry): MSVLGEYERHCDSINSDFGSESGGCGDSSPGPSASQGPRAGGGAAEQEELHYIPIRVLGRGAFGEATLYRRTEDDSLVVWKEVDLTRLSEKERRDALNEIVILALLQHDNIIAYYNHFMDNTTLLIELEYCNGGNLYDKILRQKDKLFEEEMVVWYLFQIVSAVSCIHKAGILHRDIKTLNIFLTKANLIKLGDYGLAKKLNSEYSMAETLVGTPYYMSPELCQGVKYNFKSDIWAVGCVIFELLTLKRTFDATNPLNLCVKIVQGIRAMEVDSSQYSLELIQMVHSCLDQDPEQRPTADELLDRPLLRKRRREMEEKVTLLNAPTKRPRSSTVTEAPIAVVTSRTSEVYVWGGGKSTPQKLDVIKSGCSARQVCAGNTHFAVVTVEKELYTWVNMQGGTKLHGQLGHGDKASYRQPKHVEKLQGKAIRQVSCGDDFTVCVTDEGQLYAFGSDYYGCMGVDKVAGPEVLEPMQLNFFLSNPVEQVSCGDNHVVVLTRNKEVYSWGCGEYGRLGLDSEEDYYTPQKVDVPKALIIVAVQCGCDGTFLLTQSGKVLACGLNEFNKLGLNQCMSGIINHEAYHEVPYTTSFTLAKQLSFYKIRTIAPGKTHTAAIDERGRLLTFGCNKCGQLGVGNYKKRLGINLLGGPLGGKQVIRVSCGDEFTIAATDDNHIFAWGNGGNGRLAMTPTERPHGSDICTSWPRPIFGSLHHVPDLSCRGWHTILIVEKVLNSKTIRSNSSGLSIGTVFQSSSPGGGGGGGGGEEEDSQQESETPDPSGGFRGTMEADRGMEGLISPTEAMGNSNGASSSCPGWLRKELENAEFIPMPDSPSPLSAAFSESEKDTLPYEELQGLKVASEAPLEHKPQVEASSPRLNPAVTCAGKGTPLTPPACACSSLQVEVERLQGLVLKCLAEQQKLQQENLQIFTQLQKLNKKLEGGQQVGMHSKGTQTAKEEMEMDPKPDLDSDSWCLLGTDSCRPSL

[10] = target: TAOK3 (UniProt Q9H2K8)
[11] = target: MAP3K4 (UniProt Q9Y6R4)
[12] = target: ROCK1 (UniProt Q13464)
[13] = target: CSK (UniProt P41240)
[14] = target: PHKG2 (UniProt P15735)
PHKG2, sequence (P15735 whole entry): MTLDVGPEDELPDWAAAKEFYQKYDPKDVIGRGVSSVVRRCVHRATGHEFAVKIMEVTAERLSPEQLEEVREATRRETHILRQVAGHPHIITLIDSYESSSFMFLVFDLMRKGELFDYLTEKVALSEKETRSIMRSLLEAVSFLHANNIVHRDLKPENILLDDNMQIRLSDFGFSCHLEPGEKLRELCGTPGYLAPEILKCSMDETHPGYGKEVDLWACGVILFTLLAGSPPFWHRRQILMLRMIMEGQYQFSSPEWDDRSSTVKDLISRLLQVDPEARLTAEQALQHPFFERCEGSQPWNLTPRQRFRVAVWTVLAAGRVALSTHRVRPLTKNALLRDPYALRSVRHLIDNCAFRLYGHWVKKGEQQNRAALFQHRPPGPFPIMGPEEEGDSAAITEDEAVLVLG

[15] = target: TGFBR1 (UniProt P36897)
TGFBR1, sequence (P36897 whole entry): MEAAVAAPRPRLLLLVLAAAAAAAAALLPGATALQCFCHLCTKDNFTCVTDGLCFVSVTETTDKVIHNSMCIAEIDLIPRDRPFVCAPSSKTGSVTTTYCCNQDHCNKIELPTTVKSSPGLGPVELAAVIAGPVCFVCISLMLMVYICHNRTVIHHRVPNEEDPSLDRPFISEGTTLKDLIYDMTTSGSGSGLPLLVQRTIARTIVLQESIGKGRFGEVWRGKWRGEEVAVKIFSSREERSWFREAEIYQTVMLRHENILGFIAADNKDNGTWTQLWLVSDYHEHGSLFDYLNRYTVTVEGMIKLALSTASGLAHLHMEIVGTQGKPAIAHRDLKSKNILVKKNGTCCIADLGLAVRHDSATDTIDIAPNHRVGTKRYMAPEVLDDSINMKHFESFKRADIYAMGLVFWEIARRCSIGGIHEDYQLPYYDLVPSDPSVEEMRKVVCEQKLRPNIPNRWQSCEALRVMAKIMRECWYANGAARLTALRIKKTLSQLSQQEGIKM

[16] = target: PRKAA1 (UniProt Q13131)
[17] = target: ITK (UniProt Q08881)
[18] = target: TAOK2 (UniProt Q9UL54)
[19] = target: ACVR1 (UniProt Q04771)
[20] = target: PAK4 (UniProt O96013)
[21] = target: FGFR1 (UniProt P11362)
[22] = target: CDK1 (UniProt P06493)

LATS1, sequence (O95835 whole entry): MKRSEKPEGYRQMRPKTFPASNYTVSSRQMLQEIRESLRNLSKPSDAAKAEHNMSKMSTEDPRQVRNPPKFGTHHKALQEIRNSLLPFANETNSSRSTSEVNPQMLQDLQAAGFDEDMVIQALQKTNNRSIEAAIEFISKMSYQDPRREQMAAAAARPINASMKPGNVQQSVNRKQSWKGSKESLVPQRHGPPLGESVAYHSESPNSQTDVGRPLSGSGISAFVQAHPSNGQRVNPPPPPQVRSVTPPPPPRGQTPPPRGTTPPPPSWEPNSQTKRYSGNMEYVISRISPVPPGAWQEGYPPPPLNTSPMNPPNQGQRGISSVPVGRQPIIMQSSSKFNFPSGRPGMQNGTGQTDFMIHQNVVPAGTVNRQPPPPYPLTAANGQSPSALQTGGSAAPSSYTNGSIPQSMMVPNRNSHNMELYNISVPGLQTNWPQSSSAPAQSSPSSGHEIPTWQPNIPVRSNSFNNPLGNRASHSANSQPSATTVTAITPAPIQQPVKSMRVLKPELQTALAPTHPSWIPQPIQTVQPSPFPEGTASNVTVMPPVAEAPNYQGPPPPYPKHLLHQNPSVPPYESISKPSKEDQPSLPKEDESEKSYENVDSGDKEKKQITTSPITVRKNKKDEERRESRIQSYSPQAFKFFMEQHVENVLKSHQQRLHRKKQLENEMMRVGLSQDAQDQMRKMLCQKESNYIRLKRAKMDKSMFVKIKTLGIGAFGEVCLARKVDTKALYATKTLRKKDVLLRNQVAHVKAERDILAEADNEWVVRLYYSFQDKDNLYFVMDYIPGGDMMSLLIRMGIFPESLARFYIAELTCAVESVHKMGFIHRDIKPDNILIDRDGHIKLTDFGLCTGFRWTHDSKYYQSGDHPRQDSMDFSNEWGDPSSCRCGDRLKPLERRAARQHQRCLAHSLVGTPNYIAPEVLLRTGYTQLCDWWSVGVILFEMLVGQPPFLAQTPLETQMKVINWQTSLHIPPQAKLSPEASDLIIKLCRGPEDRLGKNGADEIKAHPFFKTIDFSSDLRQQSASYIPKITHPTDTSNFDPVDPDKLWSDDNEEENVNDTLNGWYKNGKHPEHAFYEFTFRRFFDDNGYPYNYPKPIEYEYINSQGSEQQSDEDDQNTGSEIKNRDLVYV
PRKD3, sequence (O94806 whole entry): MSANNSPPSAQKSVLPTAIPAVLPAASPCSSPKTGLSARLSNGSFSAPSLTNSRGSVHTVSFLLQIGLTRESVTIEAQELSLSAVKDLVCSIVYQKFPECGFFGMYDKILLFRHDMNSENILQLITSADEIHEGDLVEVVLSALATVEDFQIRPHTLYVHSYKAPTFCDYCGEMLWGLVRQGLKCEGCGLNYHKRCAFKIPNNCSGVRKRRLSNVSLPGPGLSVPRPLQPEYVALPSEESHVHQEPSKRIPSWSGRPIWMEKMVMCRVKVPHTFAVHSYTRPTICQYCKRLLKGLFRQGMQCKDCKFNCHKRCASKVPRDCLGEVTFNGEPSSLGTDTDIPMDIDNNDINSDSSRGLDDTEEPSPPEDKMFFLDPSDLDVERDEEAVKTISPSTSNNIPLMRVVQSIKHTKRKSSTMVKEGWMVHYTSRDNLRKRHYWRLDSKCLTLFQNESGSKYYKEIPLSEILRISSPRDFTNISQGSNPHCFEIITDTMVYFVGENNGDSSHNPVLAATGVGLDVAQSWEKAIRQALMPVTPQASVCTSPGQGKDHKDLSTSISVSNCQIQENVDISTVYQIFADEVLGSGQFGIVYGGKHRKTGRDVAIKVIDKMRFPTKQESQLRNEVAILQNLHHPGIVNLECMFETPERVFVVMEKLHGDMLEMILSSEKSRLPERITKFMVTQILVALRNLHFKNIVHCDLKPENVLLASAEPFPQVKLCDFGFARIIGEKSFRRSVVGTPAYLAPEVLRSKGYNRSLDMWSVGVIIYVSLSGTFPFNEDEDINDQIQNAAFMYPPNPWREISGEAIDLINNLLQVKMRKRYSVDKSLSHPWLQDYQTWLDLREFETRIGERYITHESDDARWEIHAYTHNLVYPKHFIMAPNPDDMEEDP
AURKB, sequence (Q96GD4 whole entry): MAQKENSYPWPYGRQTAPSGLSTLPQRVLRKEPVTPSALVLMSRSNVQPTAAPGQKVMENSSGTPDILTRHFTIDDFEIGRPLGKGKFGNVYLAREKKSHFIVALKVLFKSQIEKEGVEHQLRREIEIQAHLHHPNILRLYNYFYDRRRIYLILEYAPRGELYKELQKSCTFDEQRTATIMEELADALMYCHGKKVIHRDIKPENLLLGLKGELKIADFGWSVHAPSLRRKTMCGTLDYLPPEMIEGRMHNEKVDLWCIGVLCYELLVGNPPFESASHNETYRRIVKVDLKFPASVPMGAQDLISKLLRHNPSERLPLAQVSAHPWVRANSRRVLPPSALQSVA

Kd [1]: 1320 nM | Kd [2]: 35.6 nM | Kd [3]: 48.9 nM | Kd [4]: 255 nM | Kd [5]: 1520 nM | Kd [6]: 966 nM | Kd [7]: 231 nM | Kd [8]: 808 nM | Kd [10]: 878 nM | Kd [11]: 90 nM | Kd [12]: 2000 nM | Kd [13]: 2170 nM | Kd [14]: 1150 nM | Kd [15]: 1370 nM | Kd [16]: 83 nM | Kd [17]: 38.6 nM | Kd [18]: 558 nM | Kd [19]: 1270 nM | Kd [20]: 424 nM | Kd [21]: 144 nM | Kd [22]: 1910 nM
Structure (SMILES): NC(=O)c1ccccc1Nc1nc(Nc2ccc(N3CCNCC3)cc2)ncc1Cl
Kd [9]: 96.2 nM

Reference: the supplement of paper PMC11851430, “Workflow for E3 Ligase Ligand Validation for PROTAC Development” (ACS Chemical Biology, 2025)
